# Measurements reported in patent US12185720B2, “Chitooligosaccharides and methods for use in enhancing plant growth” (NOVOZYMES BIOAG A/S, priority 2011, dated 2025).
# Legend:
# Type in all cases: in vivo
# [1] = system: Soybean seeds (Pioneer 9oM80); test: Soybean seed treatment, radicle length; conditions: after 48 hours, FIG. 25
# Experimental: Soybean seeds (Pioneer 9oM80) were plated in petriplates on moist germination paper soaked with 5 ml of treatment solution containing either water or Soybean LCO, Pea CO and CO plus fatty acids. Seedling radicles were isolated after 48 hours and measured for their length.
# [2] = system: Alfalfa (Medicago sativa) seeds; test: Alfalfa seed germination; conditions: 10^−8 M, FIG. 17
# Experimental: Alfalfa (Medicago sativa) seeds were germinated in petriplates on moist filter paper containing Pea LCO and Pea CO treatment solutions (10^−8 M) and petriplates were kept in the dark at room temperature (22° C.).
# [3] = system: Hybrid corn seeds (92L90); test: Corn seed treatment (greenhouse, two trials); conditions: 3 fl oz/100 lbs of seed; for dry weight increase over LCO: 10^-8 M
# Experimental: Two seed treatment experiments using only Pea LCO, Pea CO and the CO mixtures obtained from chitosan by enzymatic process (structurally distinct from the Pea CO, and also referred to in the examples as the “China CO”) were performed in greenhouse. Hybrid corn seeds (92L90, Peterson Farm, USA) were treated with treatment solution (10^-8 M) at the rate of 3 fl oz/100 lbs of seed. Seeds were planted in plastic pots containing 1:1 Sand:Perlite mixture. Seeds were allowed to grow for about 3-4 weeks and then they were harvested and their dry weight measured.
# Lab Lab seeds = test: Seed germination in multiple crops: Lab Lab; conditions: 30 h, dark, 22° C., FIG. 23
# Experimental: (§1) Similar to the seed germination experiment mentioned above, seeds of different crops were placed on moist filter paper in petriplates containing 5 ml liquid in each. Petriplates with seeds were then kept in the dark at 22° C.
# canola seeds = test: Canola seed germination in petriplates; conditions: 10^−9 M
# Experimental: In petriplates on moist filter paper moistened with 10^−9 M treatment solution, canola and wheat seeds were plated for germination. At 18 h after plating, Pea CO induced more canola and wheat seed germination as compared to Pea LCO. Over the period of 21 to 24 hours, seed germination rate for LCO and CO leveled up.
# [4] = system: Tomato seeds of hybrid tomato var. Royal Mounty; test: In vitro tomato seedling root growth bioassay (agar medium); conditions: for tomato seedling root length, compared to LCO: 22° C., FIG. 5
# Experimental: Tomato seeds of hybrid tomato var. Royal Mounty were surface sterilized with 10% bleach solution for 10 minutes followed by 3 rinses with sterilized distilled water. Seeds were then dried in a laminar air flow hood for 3 hours. Seeds were then placed in petri-dishes on solidified agar medium containing various concentrations of different sources of the LCO illustrated in FIG. 1b (manufactured by Darmstadt, Germany and Grenoble, France) (also referred to in the examples as the “soybean LCO”) and the inventive CO illustrated in FIG. 2a (also referred to in the examples as the “pea CO” or “CO-V”). Seedling roots were measured by a hand ruler and root fresh weights were taken in a micro balance at day 7. Growth study was done in a growth chamber at 22° C.
# Corn seeds [5] = test: Corn seed germination and root length in petriplates; conditions: 5 days after plating
# Experimental: Corn and wheat seeds were plated in petriplates containing 5 ml of treatment solution on a filter paper. Corn seeds were placed on moist filter paper for germination. Similarly, wheat seeds (spring wheat) were placed in petriplates. […] Roots were harvested and their length measured by WinRhizo system.
# [6] = system: tomato Var. Royal Mounty seeds; test: Tomato seedling root growth in petriplates (Example 11); conditions: 22° C.; 5 days in dark; FIG. 24
# Experimental: In petriplate seed germination process, tomato Var. Royal Mounty seeds ware placed on moist filter paper soaked with 5 ml treatment solution. At 22° C. and after 5 days in dark, tomato seedling roots were measured for growth by WinRhizo system.
# [7] = system: Soybean seeds (Jung seed, var. 8168NRR); test: Treatment of soybean seed with various actives (greenhouse)
# Experimental: Soybean seeds (Jung seed, var. 8168NRR) were treated with various active molecules. Seeds were treated with a liquid dose rate of 3 fl oz/100 lbs of seed. Seeds were allowed to dry for a 2 hours and planted in greenhouse in plastic pots containing 1:1 sand:perlite mixture. Seedlings were grown for 4 wks with occasional liquid fertilizer applications and then the plants were harvested. The central leaflet from the 2nd trifoliate (from down to top) was isolated and measured for surface area on a WinRhizo scanner. The rest of the plants were used for plant dry weight (DW).
# Green Mung seeds = test: Seed germination in multiple crops: Green Mung; conditions: 24 h, dark, 22° C., FIG. 23
# Experimental: as §1
# Cotton plants = test: Cotton foliar application with micronutrients (greenhouse); conditions: foliar spray Pea CO 10^−8 M, 4 wks after treatment, compared to control
# Experimental: Cotton plants were grown from seeds in greenhouse plastic pots containing sand:perlite in a 1:1 mixture. When seedlings were at the V-stage, they were foliar-sprayed with Pea CO (10^−8 M) and CO plus micronutrients (Ca-pantothenate and boric acid), each in minute amounts. Plants were harvested 4 wks after treatment. Before harvest, leaf greenness was measured by SPAD chlorophyll meter.
# corn = test: Corn field trials, foliar application, grain yield
# Red Clover seeds = test: Seed germination in multiple crops: Red Clover; conditions: 24 h, dark, 22° C., FIG. 23
# Experimental: as §1
# Corn seeds [8] = test: Corn seed application (greenhouse); conditions: seed treatment; CO 10^−8 M, LCO 10^−8 M alone or LCO 10^−9 with CO 10^−8; harvested 10 days after planting; FIG. 28
# Experimental: Corn seeds were treated with various combinations of Pea CO (10^−8 M) and Pea LCO (10^−8, 10^−9 M). Seeds were planted in greenhouse plastic pots containing 1:1 sand:perlite mixture. Seedlings were harvested 10 days after planting, washed clean and then dried in an oven at 60 C for 48 hr.
compound,measurement,setting,value
CC(=O)NC1C(O)OC(CO)C(OC2OC(CO)C(OC3OC(CO)C(OC4OC(CO)C(OC5OC(CO)C(O)C(O)C5N)C(O)C4NC(C)=O)C(O)C3NC(C)=O)C(O)C2NC(C)=O)C1O (stereo not drawn) [Pea CO],seedling radicle length,[1],less effective
same,effect on alfalfa seed germination (conclusion),[2],could positively impact
same,"germination rate at 20 h among control, LCO and CO","[2]; dark, 22° C.",no difference
same,more germination over control and LCO at 27 h,"[2]; dark, 22° C.",6%
same,dry weight increase over LCO,"[3]; first trial, FIG. 10",11.84%
same,dry weight increase over LCO,"[3]; second trial, FIG. 11",12.63%
same,"shoot, root and total biomass increase over LCO","[3]; treatment solution 10^-8 M, 3-4 weeks, both experiments",greater
same,seed germination,Lab Lab seeds,better germination
same,seed germination at 18 h as compared to Pea LCO,canola seeds; FIG. 15,more
same,seed germination rate over 21 to 24 hours,canola seeds; LCO versus CO,leveled up
same,"average root growth from all 3 concentrations, compared to LCOs",[4]; FIGS. 7 and 8,significantly better than LCOs
same,"seedling root fresh weight, compared to LCO","[4]; all three levels of concentrations (10^−7, 10^−8 and 10^−9 M), day 7, FIG. 6",outperformed LCO
same,"tomato seedling root length, compared to LCO","[4]; at 10^−7M and 10^−9M, day 7",better
same,"tomato seedling root length, compared to LCO","[4]; at 10^−8M, day 7",equal
same,"root fresh weight, compared to control seedlings","[4]; day 7, control water",significantly better than control seedlings
same,"root length, compared to control seedlings","[4]; day 7, control water",significantly better than control seedlings
same,corn seed germination,Corn seeds [5]; FIG. 18,increased germination
same,corn seedling root length over control,"Corn seeds [5]; WinRhizo, FIG. 19",significantly increased
same,average seedling root length compared to LCO,[6],better than LCO but it was not significantly better
same,tomato seedling root length as compared to water control,[6],increased root length
same,"plant dry weights (shoot, root or total plant biomass)","[7]; another experiment, vs soybean LCO, isoflavonoids, water, FIG. 13",highest plant dry weights
same,leaf surface area,"[7]; seed treatment 3 fl oz/100 lbs of seed, 4 wks, central leaflet of 2nd trifoliate, vs control (water), FIG. 12",significant increase
same,"leaf surface area, among the three actives (pea LCO, pea CO, China CO)","[7]; seed treatment, 4 wks, FIG. 12",highest leaf surface area
same,seed germination,Green Mung seeds,better germination
same,leaf greenness (SPAD chlorophyll meter),Cotton plants; FIG. 30,significantly increased
same,average dry plant weight,Cotton plants; FIG. 31,numerical increase
same,"YIELD, Response Increase",corn,4.8 % of Control
same,CO mean yield better than foliar LCO,corn; CO minus LCO,5.0 bu/A
same,higher yield increase than foliar LCO,corn; CO minus LCO,2.6%
same,"trials with a positive response, better than foliar LCO",corn; CO minus LCO,18.8%
same,yield enhancement as a foliar treatment (conclusion),corn; CO versus LCO,at least twice better
same,"YIELD, Mean (N = 16)",corn; four ounces per acre with glyphosate,201.8 bu/A
same,"YIELD, Response",corn; over Control,9.2 bu/A
same,Positive Yield Response,corn; percent of the 16 trials,93.8%
same,seed germination,Red Clover seeds,better germination
same,corn seedling dry weight,Corn seeds [8],increased corn seedling dry weight
